PubChem BioAssay (NCI)
Values joined by “and” are separate entries in the source; they are usually repeats but may differ in a detail not shown here. Equal entries are not always repeated.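 Growth conditions: 96-well plates. Treatment: test compound, 48 hours, 5 concentrations. Analysis: linear interpolation between bracketing concentrations; unreached endpoints set to highest concentration. GI50 is the concentration that inhibits growth by half. Definition used: TGI = concentration required for complete inhibition of growth.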

Legend:
Assay in all cases: NCI anticancer screen, dose series, 48 h
[1] = tested on: HCC-2998 colon
[2] = tested on: CAKI-1 renal
[3] = tested on: SF-295 CNS
[4] = tested on: UACC-62 melanoma
[5] = tested on: HT29 colon
[6] = tested on: HOP-92 NSCLC
[7] = tested on: NCI-H522 lung
[8] = tested on: LOX IMVI melanoma
[9] = tested on: OVCAR-5 ovarian
[10] = tested on: SN12C renal

| Compound | TGI [1] | TGI [2] | TGI [3] | TGI [4] | TGI [5] | TGI [6] | TGI [7] | TGI [8] | TGI [9] | TGI [10] | GI50 [1] | GI50 [2] | GI50 [3] | GI50 [4] | GI50 [5] | GI50 [6] | GI50 [7] | GI50 [8] | GI50 [9] | GI50 [10] |
| --- | --- | --- | --- | --- | --- | --- | --- | --- | --- | --- | --- | --- | --- | --- | --- | --- | --- | --- | --- | --- |
| Oc1cccc2ccc(SSc3ccc4cccc(O)c4n3)nc12 | 21.3 µM | 37.3 µM | 33.7 µM | 39.4 µM | 41.5 µM | 55.9 µM | 38.2 µM | 33.8 µM | 41.4 µM | 37 µM |  |  |  |  |  |  |  |  |  |  |
| Cc1ccc(NC(=O)CCc2nnc3s/c(=C\C=C\c4ccccc4)c(=O)n23)cc1 | > 100 µM | > 100 µM | > 100 µM | > 100 µM | > 100 µM | > 100 µM | > 100 µM | > 86.8 µM | > 100 µM | > 100 µM |  |  |  |  |  |  |  |  |  |  |
| COc1nc2c(c(=O)n1C)CN(c1ccccc1)C(=O)CN2C | > 100 µM | > 100 µM | > 100 µM | > 100 µM | > 100 µM | 55.1 µM | > 100 µM | > 100 µM | > 100 µM | > 100 µM | > 100 µM | 20.1 µM | 52.6 µM | 45.8 µM | 60.9 µM | 0.852 µM | 96.7 µM | > 100 µM | > 100 µM | 56.4 µM |
| O=[N+]([O-])c1cc(I)cc(/C=N/NS(=O)(=O)c2ccc(F)cc2)c1O | > 100 µM | 63.1 µM | 98.2 µM | 41.6 µM | 46.5 µM | 36.3 µM | 40.9 µM | 57.4 µM | > 100 µM | 54.1 µM |  |  |  |  |  |  |  |  |  |  |
| O=C1CC=C2C3CC4N(CCC45c4ccccc4N1C25)C/C3=C\CO (centres undefined) | > 100 µM | > 100 µM | > 100 µM | > 100 µM | > 100 µM | > 100 µM | > 100 µM | > 100 µM | > 100 µM | > 100 µM |  |  |  |  |  |  |  |  |  |  |
| CCOC(=O)NC(=O)c1cn(C2CCCCC2)c(=O)n(C)c1=O | > 100 µM | > 100 µM | > 100 µM | > 100 µM | > 100 µM | > 100 µM | > 100 µM | > 100 µM | > 100 µM | > 100 µM |  |  |  |  |  |  |  |  |  |  |
| C[N+]1(CCNP(=S)(NCC[N+]2(C)Cc3c(ccc4c3OCO4)C3C2c2cc4c(cc2C[C@@H]3O)OCO4)NCC[N+]2(C)Cc3c(ccc4c3OCO4)C3C2c2cc4c(cc2C[C@@H]3O)OCO4)Cc2c(ccc3c2OCO3)C2C1c1cc3c(cc1C[C@H]2O)OCO3 (some centres undefined) |  | 69.5 µM |  |  |  |  |  |  | < 0.00191 µM |  | 5.22 µM |  | 1.43 µM | 1.23 µM | 1.34 µM | 3.43 µM | 2.55 µM | 1.92 µM |  | 3.84 µM |
| CCCC(=O)Oc1ccc(/C=N/NC(N)=S)nc1 | > 100 µM | > 100 µM | > 100 µM | > 100 µM | > 100 µM | > 100 µM | > 100 µM | > 100 µM | > 100 µM | > 100 µM |  |  |  |  |  |  |  |  |  |  |
| Cn1cc(-c2ncnc3ccc(-c4cnc(Cl)c(NS(C)(=O)=O)c4)cc23)c2ccccc21 | 13.3 µM | 27 µM | 3.82 µM | 1.95 µM | > 100 µM | 0.634 µM | > 100 µM | 11.8 µM | > 100 µM | > 100 µM | 0.812 µM | 0.415 µM | 0.298 µM | 0.181 µM | 0.541 µM | 0.0408 µM | 1.42 µM | 0.48 µM | 0.382 µM | 0.856 µM |
| COc1cccc(C2SC(C)C(=O)N2NC(=O)C(O)c2ccccc2)c1 (centres undefined) | > 100 µM | > 100 µM | > 100 µM | > 100 µM | > 100 µM | > 100 µM | > 100 µM | > 100 µM | > 100 µM | > 100 µM | > 100 µM | > 100 µM | > 100 µM | > 100 µM | > 100 µM | > 100 µM | > 100 µM | > 100 µM | > 100 µM | > 100 µM |
| Cc1ccccc1SC(/C=C/NNC1=NC(c2ccccc2)C(c2ccccc2)=NN1)c1ccccc1 (centres undefined) | > 100 µM | 30 µM | 57.7 µM | > 100 µM | > 100 µM | 27.7 µM | > 100 µM | > 100 µM | > 100 µM | > 100 µM |  |  |  |  |  |  |  |  |  |  |
| C[C@]12CC[C@@H]3c4ccc(O)cc4CC[C@H]3[C@@H]1CC(Cc1ccccc1)(Cc1ccccc1)C2=O | 14.2 µM | 45.3 µM | 49.1 µM | 29.3 µM | 20.6 µM | 9.77 µM | 36.3 µM | 27.2 µM | 31.5 µM | 29.2 µM | 4.04 µM | 25.6 µM | 21.4 µM | 15.1 µM | 6.04 µM | 2.16 µM | 16.6 µM | 12.7 µM | 17.2 µM | 14.8 µM |
| N#Cc1c(N)c(C(=O)c2ccc3c(c2)OCCO3)n2c1CCCC2 | > 93.1 µM | > 100 µM | > 53.4 µM | > 100 µM | > 100 µM | > 100 µM |  | > 100 µM | > 100 µM | > 100 µM | 4.1 µM | 3.18 µM | 2.69 µM | 5.99 µM | 2.23 µM | 2.33 µM | 0.58 µM | 6.92 µM | 8.82 µM | 6.13 µM |
| Cn1cnc(SC2=CC(=O)C=C3S[C@H]4C[C@@]23c2c(c(O)c3c5c2=NCCC=5C=N3)N4)c1CC(N)C(=O)O (some centres undefined) | 26.6 µM | 33.3 µM | 29.6 µM | 19.6 µM | 11.7 µM | 31.7 µM | 5.74 µM | 18.6 µM | 33.6 µM | 19.1 µM | 13.6 µM | 18.7 µM | 15.9 µM | 7.31 µM | 2.18 µM | 17.5 µM | 2.42 µM | 4.64 µM | 19.4 µM | 7.26 µM |
| C/C(=N\N)C(CN1CCOCC1)C(c1ccccc1)c1c(O)c2ccccc2oc1=O (centres undefined) | > 100 µM | > 100 µM | > 100 µM | > 100 µM | > 100 µM | > 100 µM | > 100 µM | > 31.6 µM | > 100 µM | > 100 µM |  |  |  |  |  |  |  |  |  |  |
| COc1cc(/C=C2\C[C@H]3[C@@H]4CC=C5C[C@@H](O)CC[C@]5(C)[C@H]4CC[C@]3(C)[C@H]2O)ccc1OCCN1CCCCC1 | 1.64 µM | 3.36 µM | 1.75 µM | 3.45 µM | > 50 µM | 1.47 µM | > 50 µM | 1.34 µM | 2.6 µM | 1.75 µM | 0.85 µM | 1.74 µM | 0.906 µM | 1.73 µM | 1.54 µM | 0.688 µM | 1.6 µM | 0.589 µM | 1.03 µM | 0.813 µM |
| C[C@]1(c2nc3c(C(N)=O)cccc3[nH]2)CCCN1 | > 100 µM | > 100 µM | > 100 µM | > 100 µM | > 100 µM | > 100 µM | > 100 µM | > 100 µM | > 100 µM | > 100 µM | > 100 µM | 59 µM and 74.9 µM | 56.1 µM and > 58.3 µM | > 100 µM | 61.5 µM and > 100 µM | > 67.9 µM | > 63 µM and 97.6 µM | 66.1 µM and 97.7 µM | 23.5 µM and > 75 µM | 79.9 µM and > 85.5 µM |
| CCOc1ccc(Nc2ccnc3cc(Cl)ccc23)cc1 | > 100 µM | > 100 µM | > 100 µM | > 100 µM | > 100 µM | > 100 µM | 86.6 µM | > 100 µM | > 100 µM | > 100 µM | > 100 µM | > 100 µM | 34.4 µM | > 100 µM | 3.88 µM | 16.1 µM | 26.4 µM | 41.9 µM | 8.02 µM | > 100 µM |
| COc1cccc(/C=C2\N=C(Cl)OC2=O)c1O | > 100 µM | > 100 µM | > 100 µM | > 100 µM | > 100 µM | > 100 µM | > 100 µM | > 100 µM | > 100 µM | > 100 µM |  |  |  |  |  |  |  |  |  |  |
| CC1(C)CC[C@]2(C(=O)NCCNCCN)CC[C@]3(C)C(=CC[C@@H]4[C@@]5(C)CCC(=O)C(C)(C)[C@@H]5CC[C@]43C)[C@@H]2C1 | 3.18 µM | 4.47 µM | 3.39 µM | 3.14 µM | 4.43 µM | 4.4 µM | 3.91 µM | 3.26 µM | 4.56 µM | 3.13 µM | 1.73 µM | 1.82 µM | 1.83 µM | 1.69 µM | 1.96 µM | 1.47 µM | 1.78 µM | 1.81 µM | 1.98 µM | 1.68 µM |
